Here are results for one compound from patent US12649753B2, “Inositol derivative and use thereof” (SHANGHAI SENHUI MEDICINE CO., LTD., priority 2020, dated 2026).

This assay is described as follows: Spectrophotometric pharmacodynamics (PD) assay: inhibition of hydroxyapatite generation in human plasma. It counts as biochemical. As to conditions: human plasma (EDTA-K2), phosphate 1.5 mM and calcium 12.5 mM final, 25° C., slope of absorbance at 550 nm between 6 min and 24 min; read-out: IC50 (Mean ± SD). How it is done:
The inhibition effect of the test compounds on the generation of the human plasma hydroxyapatite (HAP) was determined by the spectrophotometric pharmacodynamics (PD) assay.
1.1 Preparation of Reagents • 1) Human plasma anticoagulated with EDTA-K2. • 2) Mixed solution: disodium hydrogen phosphate 5 mM, calcium chloride 41.67 mM, adjusted to pH 7.4 and filtered through a 0.22 μm filter. • 3) Sodium chloride solution: 0.15 M, adjusted to pH 7.4 and filtered through a 0.22 μm filter.
2.1 Test Procedures • 1) The test compounds were prepared using a 0.15 M sodium chloride solution. • 2) The human plasma sample was reprocessed. A sufficient amount of plasma was taken and centrifuged at room temperature at 10000 g for 30 min for later use. • 3) The plasma was added to a 96 well plate at 75 μL/well. • 4) The candidate drug was added at 5 μL/well. • 5) The mixed solution of disodium hydrogen phosphate and calcium chloride was added at […], with expected final concentrations of 1.5 mM and 12.5 mM, respectively. • 6) The plate was incubated at room temperature (25° C.) on a shaker (750 rpm), and the absorbance at a wavelength of 550 nm was measured every 3 min. • 7) The final reading was set as the slope of the change in absorbance between 6 min and 24 min.

As a reminder, the IC50 is the point on the concentration scale where inhibition reaches its midpoint. Take `COCCOCCO[C@@H]1C(OP(=O)(O)O)[C@H](OCCOCCOC)[C@@H](OP(=O)(O)O)C(OP(=O)(O)O)[C@H]1OP(=O)(O)O` (stereo partly shown) [INS 3001]: the half-maximal inhibitory concentration (IC50) worked out at 1860 ± 142 nM.
